According to patent US11339161B2, “Triazolo pyridines as modulators of gamma-secretase” (Boehringer Ingelheim International GmbH, priority 2017, dated 2022):
Read-outs that look alike come from different tables or passages of the source.

How the values were obtained:
CSF1R (FMS) = CSF1R (FMS) (Homo sapiens, UniProt P07333); assay: Z'-LYTE SelectScreen biochemical kinase assay CSF1R (FMS)
From the text: (§1) Thermo Fisher Scientific SelectScreen™ Biochemical Kinase Profiling Service Z′-LYTE™ Screening Protocol and Assay Conditions Assay Theory
(§2) The […] biochemical assay employs a fluorescence-based, coupled-enzyme format and is based on the differential sensitivity of phosphorylated and non-phosphorylated peptides to proteolytic cleavage. The peptide substrate is labeled with two fluorophores—one at each end—that make up a FRET pair. In the primary reaction, the kinase transfers the gamma-phosphate of ATP to a single tyrosine, serine or threonine residue in a synthetic FRET-peptide. In the secondary reaction, a site-specific protease recognizes and cleaves non-phosphorylated FRET-peptides. Phosphorylation of FRET-peptides suppresses cleavage by the Development Reagent. Cleavage disrupts FRET between the donor (i.e., coumarin) and acceptor (i.e., fluorescein) fluorophores on the FRET-peptide, whereas uncleaved, phosphorylated FRET-peptides maintain FRET. A ratiometric method, which calculates the ratio (Emission Ratio=Coumarin emission (445 nm)/Fluorescein emission (520 nm)) of donor emission to acceptor emission after excitation of the donor fluorophore at 400 nm, is used to quantitate reaction progress, as shown in the equation below. A significant benefit of this ratiometric method for quantitating reaction progress is the elimination of well-to-well variations in FRET-peptide concentration and signal intensities. As a result, the assay yields very high Z′-factor values (>0.7) at a low percent phosphorylation. Both cleaved and uncleaved FRET-peptides contribute to the fluorescence signals and therefore to the Emission Ratio. The extent of phosphorylation of the FRET-peptide can be calculated from the Emission Ratio. The Emission Ratio will remain low if the FRET-peptide is phosphorylated (i.e., no kinase inhibition) and will be high if the FRET-peptide is non-phosphorylated (i.e., kinase inhibition).
(§3) The Test Compounds are screened in 1% DMSO (final) in the well. For 10 point titrations, 3-fold serial dilutions are conducted from the starting concentration of the customer's choosing.
(§4) All Peptide/Kinase Mixtures are diluted to a 2× working concentration in the appropriate Kinase Buffer (see section Kinase Specific Assay Conditions for a complete description).
(§5) All ATP Solutions are diluted to a 4× working concentration in Kinase Buffer (50 mM HEPES pH 7.5, 0.01% BRIJ-35, 10 mM MgCl2, 1 mM EGTA). ATP Km apparent is previously determined using a Z″-LYTE assay.
(§6) The Development Reagent is diluted in Development Buffer (see section Kinase-Specific Assay Conditions—Direct and Cascade for a complete description).
(§7) Bar-coded Corning, low volume NBS, black 384-well plate (Corning Cat. #4514) • 1. 100 nL—100× Test Compound in 100% DMSO • 2. 2.4 μL—Kinase buffer • 3. 5 μL—2× Peptide/Kinase Mixture • 4. 2.5 μL—4×ATP Solution • 5. 30—second plate shake • 6. 60—minute Kinase Reaction incubation at room temperature • 7. 5 μL—Development Reagent Solution • 8. 30—second plate shake • 9. 60—minute Development Reaction incubation at room temperature • 10. Read on fluorescence plate reader and analyze the data Z′-LYTE Assay Controls
(§8) SelectScreen Kinase Profiling Service uses XLfit from IDBS. The dose response curve is curve fit to model number 205 (sigmoidal dose-response model).
The 2×CSF1R (FMS)/Tyr 01 mixture is prepared in 50 mM HEPES pH 7.5, 0.01% BRIJ-35, 10 mM MgCl2, 1 mM EGTA. The final 10 μL Kinase Reaction consists of 0.2-40 ng CSF1R (FMS) and 2 μM Tyr 01 in 50 mM HEPES pH 7.5, 0.01% BRIJ-35, 10 mM MgCl2, 1 mM EGTA. After the 1 hour Kinase Reaction incubation, 5 μL of a 1:256 dilution of Development Reagent B is added.

FGFR1 = FGFR1 (Homo sapiens, UniProt P11362); assay: Z'-LYTE SelectScreen biochemical kinase assay FGFR1
Sequence of FGFR1 (P11362 22-822): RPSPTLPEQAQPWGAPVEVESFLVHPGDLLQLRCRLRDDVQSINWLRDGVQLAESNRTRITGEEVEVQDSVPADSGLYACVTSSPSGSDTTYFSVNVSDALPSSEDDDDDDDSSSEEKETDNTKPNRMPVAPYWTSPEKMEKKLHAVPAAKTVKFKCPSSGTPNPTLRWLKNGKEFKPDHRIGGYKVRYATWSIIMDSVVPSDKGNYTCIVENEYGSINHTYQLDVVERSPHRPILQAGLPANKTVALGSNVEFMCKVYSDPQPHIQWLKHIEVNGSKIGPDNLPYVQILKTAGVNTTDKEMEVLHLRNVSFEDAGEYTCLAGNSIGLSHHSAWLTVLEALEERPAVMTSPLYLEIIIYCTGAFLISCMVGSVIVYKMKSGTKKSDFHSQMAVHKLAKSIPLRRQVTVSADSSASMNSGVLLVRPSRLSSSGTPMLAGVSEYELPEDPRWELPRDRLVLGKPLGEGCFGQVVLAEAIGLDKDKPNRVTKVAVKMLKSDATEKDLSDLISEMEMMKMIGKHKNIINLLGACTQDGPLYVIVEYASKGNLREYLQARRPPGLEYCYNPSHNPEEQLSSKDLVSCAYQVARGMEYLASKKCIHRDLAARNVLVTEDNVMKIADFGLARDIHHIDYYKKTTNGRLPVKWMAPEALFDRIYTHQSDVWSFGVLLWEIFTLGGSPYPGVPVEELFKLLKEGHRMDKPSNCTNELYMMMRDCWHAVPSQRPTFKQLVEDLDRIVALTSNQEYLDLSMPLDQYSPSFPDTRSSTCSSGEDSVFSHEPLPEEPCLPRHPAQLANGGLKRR
From the text: as §1, §2, §3, §4, §5, §6, §7, §8
(§9) The 2×FGFR1/Tyr 04 mixture is prepared in 50 mM HEPES pH 7.5, 0.01% BRIJ-35, 10 mM MgCl2, 4 mM MnCl2, 1 mM EGTA, 2 mM DTT. The final 10 μL Kinase Reaction consists of 0.44-2.45 ng FGFR1 and 2 μM Tyr 04 in 50 mM HEPES pH 7.5, 0.01% BRIJ-35, 10 mM MgCl2, 2 mM MnCl2, 1 mM EGTA, 1 mM DTT. After the 1 hour Kinase Reaction incubation, 5 μL of a 1:64 dilution of Development Reagent B is added.

FLT4 (VEGFR3) = FLT4 (VEGFR3) (Homo sapiens, UniProt P35916); assay: Z'-LYTE SelectScreen biochemical kinase assay FLT4 (VEGFR3)
Sequence of FLT4 (VEGFR3) (P35916 25-1363): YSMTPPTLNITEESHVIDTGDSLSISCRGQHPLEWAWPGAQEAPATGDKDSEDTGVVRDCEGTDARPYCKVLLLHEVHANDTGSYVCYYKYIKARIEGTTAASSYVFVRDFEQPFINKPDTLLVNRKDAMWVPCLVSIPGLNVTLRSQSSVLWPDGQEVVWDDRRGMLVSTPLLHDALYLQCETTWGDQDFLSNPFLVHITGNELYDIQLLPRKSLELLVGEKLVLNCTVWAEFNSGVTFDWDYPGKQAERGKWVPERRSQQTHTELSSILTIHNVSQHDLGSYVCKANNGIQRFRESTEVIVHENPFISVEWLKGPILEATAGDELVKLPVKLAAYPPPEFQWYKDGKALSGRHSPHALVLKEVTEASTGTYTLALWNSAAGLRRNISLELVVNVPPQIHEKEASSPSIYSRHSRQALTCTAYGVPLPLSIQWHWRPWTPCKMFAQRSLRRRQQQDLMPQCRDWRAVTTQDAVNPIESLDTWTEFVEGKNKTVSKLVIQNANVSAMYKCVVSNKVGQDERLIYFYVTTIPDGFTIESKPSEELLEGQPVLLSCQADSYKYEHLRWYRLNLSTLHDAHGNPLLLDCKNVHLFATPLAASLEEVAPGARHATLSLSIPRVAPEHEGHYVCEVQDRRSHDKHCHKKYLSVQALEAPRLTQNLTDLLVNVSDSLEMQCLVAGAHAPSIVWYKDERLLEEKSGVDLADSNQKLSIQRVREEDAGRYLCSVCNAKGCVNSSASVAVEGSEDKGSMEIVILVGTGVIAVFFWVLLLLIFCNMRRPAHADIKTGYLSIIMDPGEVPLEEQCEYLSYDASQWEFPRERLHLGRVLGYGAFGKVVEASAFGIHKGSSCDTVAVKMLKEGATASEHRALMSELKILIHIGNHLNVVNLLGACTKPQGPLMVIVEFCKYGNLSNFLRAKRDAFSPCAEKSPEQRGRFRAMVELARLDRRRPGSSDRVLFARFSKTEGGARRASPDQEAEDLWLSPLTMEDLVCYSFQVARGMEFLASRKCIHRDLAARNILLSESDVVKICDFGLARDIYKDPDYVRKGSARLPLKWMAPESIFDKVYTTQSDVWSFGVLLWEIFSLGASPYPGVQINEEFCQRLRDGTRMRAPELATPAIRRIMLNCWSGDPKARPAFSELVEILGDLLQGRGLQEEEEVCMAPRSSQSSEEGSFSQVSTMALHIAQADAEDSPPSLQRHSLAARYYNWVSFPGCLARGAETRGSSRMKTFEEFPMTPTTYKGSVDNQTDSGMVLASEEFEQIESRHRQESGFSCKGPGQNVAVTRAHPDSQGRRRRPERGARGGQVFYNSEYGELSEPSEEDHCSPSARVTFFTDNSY
From the text: as §1, §2, §3, §4, §5, §6, §7, §8
as §9, with “2×FLT4 (VEGFR3)/Tyr” for “2×FGFR1/Tyr”, “2-10.5” for “0.44-2.45”, “FLT4 (VEGFR3)” for “FGFR1”

LYN B = LYN B (Homo sapiens, UniProt P07948); assay: Z'-LYTE SelectScreen biochemical kinase assay LYN B
Sequence of LYN B (P07948 1-491 isoform P07948-2): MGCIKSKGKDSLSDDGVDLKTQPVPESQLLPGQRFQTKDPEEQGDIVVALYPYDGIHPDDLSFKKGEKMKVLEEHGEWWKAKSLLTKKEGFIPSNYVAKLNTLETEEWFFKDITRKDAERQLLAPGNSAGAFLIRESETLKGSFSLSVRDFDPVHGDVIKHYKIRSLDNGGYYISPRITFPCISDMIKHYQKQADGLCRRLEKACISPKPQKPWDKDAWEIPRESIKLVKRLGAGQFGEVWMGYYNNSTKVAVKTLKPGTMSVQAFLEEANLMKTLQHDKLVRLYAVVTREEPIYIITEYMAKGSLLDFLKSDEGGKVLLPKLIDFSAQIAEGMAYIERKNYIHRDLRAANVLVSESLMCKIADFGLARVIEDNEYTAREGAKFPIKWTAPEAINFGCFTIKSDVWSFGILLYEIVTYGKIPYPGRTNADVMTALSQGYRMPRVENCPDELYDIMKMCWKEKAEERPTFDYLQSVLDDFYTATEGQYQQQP
From the text: as §1, §2, §3, §4, §5, §6, §7, §8
The 2×LYN B/Tyr 02 mixture is prepared in 50 mM HEPES pH 7.5, 0.01% BRIJ-35, 10 mM MgCl2, 1 mM EGTA. The final 10 μL Kinase Reaction consists of 0.85-14.8 ng LYN B and 2 μM Tyr 02 in 50 mM HEPES pH 7.5, 0.01% BRIJ-35, 10 mM MgCl2, 1 mM EGTA. After the 1 hour Kinase Reaction incubation, 5 μL of a 1:128 dilution of Development Reagent A is added.

[1] = 10 μmolar compound concentration, ATP at Km app, read-out: CSF1R (FMS) inhibition
[2] = read-out: % Inhibition mean CSF1R (FMS)
[3] = 10 μmolar compound concentration, ATP at Km app, read-out: FGFR1 inhibition
[4] = read-out: % Inhibition mean FGFR1
[5] = 10 μmolar compound concentration, ATP at Km app, read-out: FLT4 (VEGFR3) inhibition
[6] = read-out: % Inhibition mean FLT4 (VEGFR3)
[7] = 10 μmolar compound concentration, ATP at Km app, read-out: LYN B inhibition
[8] = read-out: % Inhibition mean LYN B

Sequence of CSF1R (FMS) (P07333 20-972): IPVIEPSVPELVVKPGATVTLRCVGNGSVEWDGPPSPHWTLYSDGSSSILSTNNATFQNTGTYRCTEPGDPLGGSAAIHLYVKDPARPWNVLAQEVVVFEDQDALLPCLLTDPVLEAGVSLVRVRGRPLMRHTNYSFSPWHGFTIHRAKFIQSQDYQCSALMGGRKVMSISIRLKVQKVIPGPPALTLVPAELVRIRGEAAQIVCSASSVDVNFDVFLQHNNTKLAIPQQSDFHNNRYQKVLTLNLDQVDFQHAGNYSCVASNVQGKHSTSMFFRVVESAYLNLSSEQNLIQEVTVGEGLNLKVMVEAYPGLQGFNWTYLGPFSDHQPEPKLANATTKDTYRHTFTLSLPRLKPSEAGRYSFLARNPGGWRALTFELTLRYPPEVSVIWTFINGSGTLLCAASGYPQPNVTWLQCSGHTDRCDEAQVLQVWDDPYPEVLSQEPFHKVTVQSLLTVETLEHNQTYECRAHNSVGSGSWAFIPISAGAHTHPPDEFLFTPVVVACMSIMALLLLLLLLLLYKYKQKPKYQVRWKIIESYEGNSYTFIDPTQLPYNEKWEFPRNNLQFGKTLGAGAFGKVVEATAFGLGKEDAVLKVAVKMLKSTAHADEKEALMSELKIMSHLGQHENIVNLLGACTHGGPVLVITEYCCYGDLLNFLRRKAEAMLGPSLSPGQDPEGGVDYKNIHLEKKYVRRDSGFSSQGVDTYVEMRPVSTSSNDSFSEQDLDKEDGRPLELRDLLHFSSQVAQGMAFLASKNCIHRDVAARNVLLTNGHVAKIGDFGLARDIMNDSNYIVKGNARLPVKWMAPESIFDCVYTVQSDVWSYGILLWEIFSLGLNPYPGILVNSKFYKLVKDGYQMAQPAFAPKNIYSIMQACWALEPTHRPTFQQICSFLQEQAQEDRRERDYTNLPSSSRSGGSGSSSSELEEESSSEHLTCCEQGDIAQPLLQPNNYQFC

Compound | inhibition at 10 µM (CSF1R (FMS); [1]) | inhibition at 10 µM (CSF1R (FMS); [2]) | inhibition at 10 µM (FGFR1; [3]) | inhibition at 10 µM (FGFR1; [4]) | inhibition at 10 µM (FLT4 (VEGFR3); [5]) | inhibition at 10 µM (FLT4 (VEGFR3); [6]) | inhibition at 10 µM (LYN B; [7]) | inhibition at 10 µM (LYN B; [8])
Cc1cc(F)ccc1-c1cccn2nc(Nc3ccc4c(cnn4C)c3)nc12 [Example 9, [8-(4-fluoro-2-methyl-phenyl)-[1,2,4]triazolo[1,5-a]pyridine-2-yl]-(1-methyl-1H-indazol-5-yl)-amine] | > 80% | 82% | < 40% | 35% | > 80% | 86% | < 40% | 18%
CCn1ncc2c1C(C)CC(Nc1nc3c(-c4cc(F)c(F)c(F)c4)cccn3n1)C2 (stereo not drawn) [Example 49, (1-Ethyl-7-methyl-4,5,6,7-tetrahydro-1H-indazol-5-yl)-[8-(3,4,5-trifluoro-phenyl)-[1,2,4]triazolo[1,5-a]pyridine-2-yl]-amine] | < 40% | 34% | < 40% | 9% | < 40% | 33% | < 40% | 25%
CCCn1ncc2c1CCC(Nc1nc3c(-c4ccc(F)cc4C)cccn3n1)C2 (stereo not drawn) [Example 43, [8-(4-fluoro-2-methyl-phenyl)-[1,2,4]triazolo[1,5-a]pyridine-2-yl]-(1-propyl-4,5,6,7-tetrahydro-1H-indazol-5-yl)-amine] | < 40% | 28% | < 40% | 15% | < 40% | 11% | < 40% | 22%
Cc1cc(F)ccc1-c1cccn2nc(NC3CCc4c(cnn4C(C)C)C3)nc12 (stereo not drawn) [Example 44, [8-(4-fluoro-2-methyl-phenyl)-[1,2,4]triazolo[1,5-a]pyridine-2-yl]-(1-isopropyl-4,5,6,7-tetrahydro-1H-indazol-5-yl)-amine] | 40 to 80% | 43% | < 40% | 20% | 40 to 80% | 43% | < 40% | 21%
CCc1nn(C)c2c1CCC(Nc1nc3c(-c4ccc(F)cc4C)cccn3n1)C2 (stereo not drawn) [Example 54, (3-Ethyl-1-methyl-4,5,6,7-tetrahydro-1H-indazol-6-yl)-[8-(4-fluoro-2-methyl-phenyl)-[1,2,4]triazolo[1,5-a]pyridine-2-yl]-amine] | < 40% | 27% | < 40% | -3% | < 40% | 38% | < 40% | 15%
CCn1nnc2c1CCC(Nc1nc3c(-c4ccc(F)cc4C)cccn3n1)C2 (stereo not drawn) [Example 51, (1-Ethyl-4,5,6,7-tetrahydro-1H-benzotriazol-5-yl)-[8-(4-fluoro-2-methyl-phenyl)-[1,2,4]triazolo[1,5-a]pyridine-2-yl]-amine] | < 40% | 9% | < 40% | 5% | < 40% | 15% | < 40% | 7%

Second part, the compound after the results:

inhibition at 10 µM (CSF1R (FMS); [1]) | inhibition at 10 µM (CSF1R (FMS); [2]) | inhibition at 10 µM (FGFR1; [3]) | inhibition at 10 µM (FGFR1; [4]) | inhibition at 10 µM (FLT4 (VEGFR3); [5]) | inhibition at 10 µM (FLT4 (VEGFR3); [6]) | inhibition at 10 µM (LYN B; [7]) | inhibition at 10 µM (LYN B; [8]) | Compound
40 to 80% | 72% | < 40% | 23% | 40 to 80% | 43% | < 40% | 20% | CCn1ncc2c1CCC(Nc1nc3c(-c4ccccc4)cccn3n1)C2 (stereo not drawn) [Example 57, (1-Ethyl-4,5,6,7-tetrahydro-1H-indazol-5-yl)-(8-phenyl-[1,2,4]triazolo[1,5-a]pyridine-2-yl)-amine]
< 40% | 18% | < 40% | 15% | < 40% | 21% | < 40% | 17% | CCn1ncc2c1CC[C@@H](Nc1nc3c(-c4ccc(F)c(Cl)c4)cccn3n1)C2 [Example R-61, (R)-[8-(3-Chloro-4-fluoro-phenyl)-[1,2,4]triazolo[1,5-a]pyridine-2-yl]-(1-ethyl-4,5,6,7-tetrahydro-1H-indazol-5-yl)-amine]
40 to 80% | 58% | < 40% | 20% |  | 35% | < 40% | 19% | CCn1ncc2c1CCC(Nc1nc3c(-c4ccccc4C)cccn3n1)C2 (stereo not drawn) [Example 56, (1-Ethyl-4,5,6,7-tetrahydro-1H-indazol-5-yl)-[8-(2-methyl-phenyl)-[1,2,4]triazolo[1,5-a]pyridine-2-yl]-amine]
40 to 80% | 66% | < 40% | 23% | 40 to 80% | 52% | < 40% | 22% | CCn1ncc2c1CCC(Nc1nc3c(-c4cnccc4OC)cccn3n1)C2 (stereo not drawn) [Example 68, (1-Ethyl-4,5,6,7-tetrahydro-1H-indazol-5-yl)-[8-(4-methoxy-pyridin-3-yl)-[1,2,4]triazolo[1,5-a]pyridine-2-yl]-amine]
< 40% | 29% | < 40% | 21% | < 40% | 33% | < 40% | 20% | CCn1ncc2c1CCC(Nc1nc3c(-c4ccc(C)nc4)cccn3n1)C2 (stereo not drawn) [Example 67, (1-Ethyl-4,5,6,7-tetrahydro-1H-indazol-5-yl)-[8-(6-methyl-pyridin-3-yl)-[1,2,4]triazolo[1,5-a]pyridine-2-yl]-amine]
